Target: T1, AsfvLIG (African swine fever virus BA71V, UniProt P35970)
T1 construct: gene LIG
Conditions: non-catalytic AsfvLIG:DNA complex; no Mg2+; bound in the adenylation domain near catalytic Lys151

T1 sequence (P35970 whole entry, looked up): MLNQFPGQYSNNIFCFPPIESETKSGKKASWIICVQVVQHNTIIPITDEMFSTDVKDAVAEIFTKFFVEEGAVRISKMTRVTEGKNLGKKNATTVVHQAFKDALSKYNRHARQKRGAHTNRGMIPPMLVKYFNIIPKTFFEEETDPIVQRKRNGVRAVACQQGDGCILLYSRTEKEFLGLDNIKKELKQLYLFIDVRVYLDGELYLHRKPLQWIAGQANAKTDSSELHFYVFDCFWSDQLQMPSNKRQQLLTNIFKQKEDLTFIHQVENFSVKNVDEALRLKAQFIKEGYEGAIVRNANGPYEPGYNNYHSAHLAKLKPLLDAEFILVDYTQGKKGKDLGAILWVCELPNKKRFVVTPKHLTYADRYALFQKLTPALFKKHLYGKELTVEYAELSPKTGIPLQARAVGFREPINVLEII

Nc1ncnc2c1ncn2[C@@H]1O[C@H](COP(=O)(O)OP(=O)(O)OP(=O)(O)O)[C@@H](O)[C@H]1O [ATP]
X-ray crystal structure (Se-SAD): the ATP is bound by the AD domain and stabilized by various interactions
